# Laboratory results as given in patent US9963480B2, “Nucleoside phosphoramidate compound and use thereof” (priority 2013, dated 2018).
# Assays:
# [1] = system: J399EM (HCV genotype 2a) virus; assay: Antiviral activity assay in the cell-culture-derived infectious HCV (HCVcc) system; assay type: cell-based
# Procedure: The compound according to the above example 1 was used in this experiment. The compound was formulated into a 10 mM mother liquid with DMSO, diluted to 500 nM by DMEM complete culture medium containing 0.5% of DMSO, followed by 4-fold dilution successively, and six concentrations were obtained. The positive control was diluted to 10 μM by DMEM complete culture medium containing 0.5% of DMSO, followed by 4-fold successively, and six concentrations were obtained.
# (§1) Huh 7.5.1 cells, provided by Shanghai Institute of Materia Medica, Chinese Academy of Sciences.
# J399EM (HCV genotype 2a) virus, i.e. a full length HCV mutant strain transfected with EGFP (enhanced green fluorescent protein) was used, which had the same infection capacity as the wild type JFH-1. The NS5A-EGFP fusion protein fluorescence was observed directly in infected cells by inserting EGFP coding sequence in the NS5A region. J399EM was provided by Shanghai Institute of Materia Medica, Chinese Academy of Sciences.
# (§2) • 1) Huh 7.5.1 cells preparation: collecting the Huh7.5.1 cells in logarithmic phase, resuspending in DMEM complete culture medium, seeding into 96-well plates (7×10^3 cells/well), and incubating in a 37° C., 5% CO2 incubator for 24 h; • 2) virus infection: resuspending J399EM viruses in DMEM complete culture medium, adding the virus supernatant (MOI≈0.1) to the above 96-well plates, and washing with PBS after 8 hours of infection; • 3) drug treatment: adding various concentrations of the compounds to the Huh7.5.1 cells infected by J399EM viruses, with each concentration in duplicate; setting the control group with zero percent effect (ZPE) and the control group with hundred percent effect (HPE); replacing the compound with the DMEM complete culture medium containing 0.5% DMSO in ZPE group, and using the cells not infected with viruses in HPE group. • 4) cells incubation: incubating the 96-well plates in a 37° C., 5% CO2 incubator for 72 hr; • 5) anti-HCV activity detection: reading the relative fluorescence units (RFU) of each well by EnVision® Multi label Plate readers after incubation, and calculating the anti-HCV activity of the compounds using the obtained data according to the following formula: Inhibition %=(RFUZPE−RFUCPD)/(RFUZPE−RFUHPE)×100 • wherein RFUZPE represents the relative fluorescence units of the control group with zero percent effect and RFUCPD represents the relative fluorescence units of the corresponding compound group, and RFUHPE represents the relative fluorescence units of the control group with hundred percent effect. • 6) Cell viability detection: adding MTT solution to each well, incubating in a 37° C., 5% CO2 incubator for 4 hr, followed by addition of MTT dissolving solution, reading optical density (OD) of each well at 570 nm by the Multi label Plate readers after 6 hr, calculating the cytotoxicity of the compounds using the obtained data according to the following formula: Viability %=ODCPD/ODZPE×100 • wherein ODZPE represents the optical density of the control group with zero percent effect, and ODCPD represents the optical density of the corresponding compound; • 7) Data processing: processing the Inhibition %, Viability % by GraphPad Prism Software respectively, and obtaining the half maximal effective concentration (EC50) values and half maximal cytotoxic concentration (CC50) values of the compounds against the HVCcc GT2a viruses.
# [2] = Cell viability detection (MTT) in the HCVcc system; assay type: cell-based; details: human, Huh 7.5.1 cells infected with J399EM virus (HCVcc); Huh 7.5.1 cells, MTT, 72 hr
# Procedure: as §1, §2
# Huh 7.5.1 cells = assay: Cell viability detection (MTT) in the HCVcc system; assay type: cell-based; details: HCVcc system
# Procedure: as §1, §2
# [3] = Pharmacokinetic studies in SD rats: metabolite GS-461203 in liver homogenate; assay type: in vivo; details: liver tissue, 50 mg/kg intragastric
# Procedure: In this experiment, the compound of Example 1 was used, and the positive control drug was the same as above. Each of the compounds was added to 0.5% sodium carboxymethyl cellulose (CMC), and the mixture was vortexed to prepare a 10 mg/mL suspension for intragastric administration.
# The standard substance GS-461203 was the metabolite of the tested compounds, and the chemical name was (2′R)-2′-deoxy-2′-fluoro-2′-methyluridinetriphosphate, which was purchased from TriLink BioTechnologies Corporation, USA.
# Male SD rats, 6-8 weeks old, weighing 237.0-268.4 g, provided by Shanghai Super-B&K laboratory animal Co. Limited.
# • 1) administration: dividing SD rats into 4 groups, with 18 rats in each group, intragastrically administering with the compound in an amount of 50 mg/kg. […]
smiles,measurement,setting,value
"CC(C)OC(=O)[C@H](C)NP(=O)(OC[C@H]1O[C@@H](n2ccc(=O)[nH]c2=O)[C@](C)(F)[C@@H]1O)Oc1ccc(-c2ccccc2)cc1 (stereo partly drawn) [Example 1, (2S)-2-((([1,1′-biphenyl]-4-yloxy)(((2R,3R,4R,5R)-5-(2,4-dioxo-3,4-dihydropyrimidin-1(2H)-yl)-4-fluoro-3-hydroxy-4-methyltetrahydrofuran-2-yl)methoxy)phosphoryl)amino)propanoic Acid Isopropyl Ester]",antiviral activity compared with the positive control,[1]; HCVcc system,excellent
same,EC50,"[1]; Hepatitis C virus, Huh-7.5.1, 72 h",0.039 µM
same,CC50 at 72 h,[2],> 10 µM
same,cell toxicity compared with the positive control,Huh 7.5.1 cells,less
same,in vivo exposure level of the metabolite compared with the positive control,[3],greater
